Measurements: patent US8580556B2, “Sulfonylurea-responsive repressor proteins” (E. I. du Pont de Nemours and Company, priority 2008, dated 2013)

Tests used:
tet operator (tetO) = test: Electrophoretic gel mobility shift assay (EMSA), tet operator binding; conditions: ethametsulfuron repressor protein (L7A11) with TetO DNA; FIG. 7
[1] = pH 7; cited from earlier work
[2] = system: tetA promoter (PtetA)-lacZ reporter in E. coli KM3; format: cell-based; conditions: L1 hits; 20 μg/ml
[3] = system: tobacco BY-2 cell culture; test: Tobacco BY-2 cell culture (dMMV-HRA) sulfonylurea resistance; format: cell-based, N. tabacum; conditions: 200 ppb chlorsulfuron
Source text: In addition to the leaf assay it was desired to have an in planta assay to enable high throughput screening of SuR libraries for optimal plant functionality. We designed a system similar to the leaf assay but using tobacco BY-2 cell culture in 96-well format. BY-2 cell culture was transformed with a dMMV-HRA construct such that the culture would withstand treatment with target sulfonylurea test compounds.

Row | Compound | release of repressor from operator sequence by inducer (tet operator (tetO)) | logP [1] | activator potency compared with the starting ligand Harmony® [2] | growth of dMMV-HRA transformed BY-2 cell line [3]
1 | Cc1c2c(c(O)c3c(O)cccc13)C(=O)[C@]1(O)C(=O)C(C(N)=O)=C(O)[C@@H](N(C)C)[C@@H]1C2 [atc, anhydrotetracycline] | No change in operator release | – | – | –
2 | COC(=O)c1sccc1S(=O)(=O)NC(=O)Nc1nc(C)nc(OC)n1 [Harmony®, thifensulfuron-methyl] | – | ~0.02 | – | –
3 | CCOC(=O)c1ccccc1S(=O)(=O)NC(=O)Nc1nc(Cl)cc(OC)n1 [chlorimuron, Chlorimuron-ethyl, reference compound] | – | – | more potent activators | –
4 | CCOc1nc(NC)nc(NC(=O)NS(=O)(=O)c2ccccc2C(=O)OC)n1 [ethametsulfuron, Ethametsulfuron-methyl, reference compound] | inducer preference for operator release | – | more potent activators | –
5 | COc1nc(C)nc(NC(=O)NS(=O)(=O)c2ccccc2Cl)n1 [chlorsulfuron, 2 chloro N ((4 methoxy 6 methy 1,3,5 triazine 2 yl)aminocarbonyl)benzenesulfonamide, reference compound] | – | – | more potent activators | fully resistant
